Source: ChEMBL document CHEMBL5360625, “Design, Synthesis, and Antitumor Activity Evaluation of 2-Arylmethoxy-4-(2,2'-dihalogen-substituted biphenyl-3-ylmethoxy) Benzylamine Derivatives as Potent PD-1/PD-L1 Inhibitors” (J Med Chem, 2023)
Active and inactive are the calls of the source. The rule behind the calls is not given here.

Tests used:
[1] = test system: MC-38; assay: Immunomodulatory activity in mouse MC38 cells implanted in PD-1/PD-L1 humanized C57/BL6 mouse assessed as decrease in PD-L1 mRNA expression level in tumor at 50 mg/kg, IG qd administered on day 5 measured after 2 weeks by RT-PCR analysis; format: functional, organism-based
[2] = AUC (0 to t) in Sprague-Dawley rat at 8 mg/kg, iv measured upto 48 hrs by LC-MS/MS analysis; format: ADME, organism-based; design: dose 8 mg/kg, time < 48 hrs, route iv; details: in vivo
[3] = Toxicity in PD-1/PD-L1 humanized C57/BL6 mouse implanted with mouse MC38 cells assessed as change in body weight at 50 mg/kg, IG qd administered on day 5 measured after 2 weeks; format: organism-based, MC-38; details: in vivo, po, 336 h
[4] = Apparent volume of distribution in Sprague-Dawley rat at 40 mg/kg, IG measured upto 48 hrs by LC-MS/MS analysis; format: ADME, organism-based; details: in vivo, po
[5] = AUC (0 to infinity) in Sprague-Dawley rat at 10 mg/kg, ip measured upto 48 hrs by LC-MS/MS analysis; format: ADME, organism-based; design: time < 48 hrs, dose 10 mg/kg, route ip; details: in vivo
[6] = Apparent volume of distribution in Sprague-Dawley rat at 10 mg/kg, ip measured upto 48 hrs by LC-MS/MS analysis; format: ADME, organism-based; details: in vivo
[7] = test system: MC-38; assay: Antitumor activity against mouse MC38 cells implanted in PD-1/PD-L1 humanized C57/BL6 mouse assessed as increase in CD8 positive CD4 positive ratio in tumor at 50 mg/kg, IG qd administered on day 5 measured after 2 weeks by flow cytometry analysis; format: functional, organism-based
[8] = test system: MC-38; assay: Antitumor activity against mouse MC38 cells implanted in PD-1/PD-L1 humanized C57/BL6 mouse assessed as tumor growth inhibition at 50 mg/kg, IG qd administered on day 5 measured after 2 weeks; format: functional; details: MC-38, po, 336 h, read-out: TGI
[9] = Tmax in Sprague-Dawley rat at 10 mg/kg, ip measured upto 48 hrs by LC-MS/MS analysis; format: ADME, organism-based; details: in vivo
[10] = AUC (0 to t) in Sprague-Dawley rat at 40 mg/kg, IG measured upto 48 hrs by LC-MS/MS analysis; format: ADME, organism-based; design: dose 40 mg/kg, time < 48 hrs, route ig; details: in vivo, po
[11] = Toxicity in PD-1/PD-L1 humanized C57/BL6 mouse implanted with mouse MC38 cells assessed as morphological change in spleen at 50 mg/kg, IG qd administered on day 5 measured after 2 weeks by hematoxylin-eosin staining based inverted fluorescent microscopic analysis; format: organism-based, MC-38; details: in vivo, po, 336 h
[12] = Half life in Sprague-Dawley rat at 40 mg/kg, IG measured upto 48 hrs by LC-MS/MS analysis; format: ADME, organism-based; details: Sprague-Dawley, in vivo, po
[13] = Bioavailability in Sprague-Dawley rat at 40 mg/kg, IG measured upto 48 hrs by LC-MS/MS analysis; format: ADME, organism-based; details: in vivo, po
[14] = Cmax in Sprague-Dawley rat at 10 mg/kg, ip measured upto 48 hrs by LC-MS/MS analysis; format: ADME, organism-based; design: time < 48 hrs, dose 10 mg/kg, route ip; details: in vivo
[15] = Apparent volume of distribution in Sprague-Dawley rat at 8 mg/kg, iv measured upto 48 hrs by LC-MS/MS analysis; format: ADME, organism-based; details: Sprague-Dawley, in vivo, read-out: Vz
[16] = Clearance in Sprague-Dawley rat at 40 mg/kg, IG measured upto 48 hrs by LC-MS/MS analysis; format: ADME, organism-based; details: Sprague-Dawley, in vivo, po
[17] = Toxicity in PD-1/PD-L1 humanized C57/BL6 mouse implanted with mouse MC38 cells assessed as morphological change in lung at 50 mg/kg, IG qd administered on day 5 measured after 2 weeks by hematoxylin-eosin staining based inverted fluorescent microscopic analysis; format: organism-based, MC-38; details: in vivo, po, 336 h
[18] = Hepatotoxicity in PD-1/PD-L1 humanized C57/BL6 mouse implanted with mouse MC38 cells assessed as effect on AST level in serum at 50 mg/kg, IG qd administered on day 5 measured after 2 weeks; format: toxicity, organism-based, MC-38; details: in vivo, po, 336 h
[19] = Toxicity in PD-1/PD-L1 humanized C57/BL6 mouse implanted with mouse MC38 cells assessed as mortality at 50 mg/kg, IG qd administered on day 5 measured after 2 weeks; format: organism-based, MC-38; details: in vivo, po, 336 h
[20] = test system: MC-38; assay: Immunomodulatory activity in mouse MC38 cells implanted in PD-1/PD-L1 humanized C57/BL6 mouse assessed as increase in CXCR3 mRNA expression level in tumor at 50 mg/kg, IG qd administered on day 5 measured after 2 weeks by RT-PCR analysis; format: functional, organism-based
[21] = Clearance in Sprague-Dawley rat at 10 mg/kg, ip measured upto 48 hrs by LC-MS/MS analysis; format: ADME, organism-based; details: in vivo
[22] = molecular target: Programmed cell death protein 1/Programmed cell death 1 ligand 1 (Homo sapiens, UniProt Q9NZQ7); assay: Inhibition of PD-1/PD-L1 interaction (unknown origin) incubated for 1 hr by HTRF assay; format: protein-complex assay
Chain of Programmed cell death protein 1/Programmed cell death 1 ligand 1 (Q15116 whole entry): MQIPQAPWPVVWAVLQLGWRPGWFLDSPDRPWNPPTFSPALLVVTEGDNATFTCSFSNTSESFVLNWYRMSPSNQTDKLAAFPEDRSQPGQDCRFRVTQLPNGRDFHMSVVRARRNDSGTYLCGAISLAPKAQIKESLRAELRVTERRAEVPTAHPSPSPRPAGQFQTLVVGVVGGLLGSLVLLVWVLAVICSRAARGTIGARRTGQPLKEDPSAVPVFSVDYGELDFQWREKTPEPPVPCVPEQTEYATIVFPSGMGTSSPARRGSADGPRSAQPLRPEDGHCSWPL
Chain of Programmed cell death protein 1/Programmed cell death 1 ligand 1 (Q9NZQ7 whole entry): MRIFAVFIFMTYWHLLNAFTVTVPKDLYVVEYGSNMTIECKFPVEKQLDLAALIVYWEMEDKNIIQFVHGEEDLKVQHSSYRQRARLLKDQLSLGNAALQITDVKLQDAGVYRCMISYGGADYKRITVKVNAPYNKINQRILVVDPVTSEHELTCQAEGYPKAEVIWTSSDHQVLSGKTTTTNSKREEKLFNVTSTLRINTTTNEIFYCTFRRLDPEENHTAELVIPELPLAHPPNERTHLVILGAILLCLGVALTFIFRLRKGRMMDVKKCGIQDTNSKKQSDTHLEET

[23] = Hepatotoxicity in PD-1/PD-L1 humanized C57/BL6 mouse implanted with mouse MC38 cells assessed as effect on ALB level in serum at 50 mg/kg, IG qd administered on day 5 measured after 2 weeks; format: toxicity, organism-based, MC-38; details: in vivo, po, 336 h
[24] = Hepatotoxicity in PD-1/PD-L1 humanized C57/BL6 mouse implanted with mouse MC38 cells assessed as effect on ALT level in serum at 50 mg/kg, IG qd administered on day 5 measured after 2 weeks; format: toxicity, organism-based, MC-38; details: in vivo, po, 336 h
[25] = Nephrotoxicity in PD-1/PD-L1 humanized C57/BL6 mouse implanted with mouse MC38 cells assessed as effect on creatinine level in serum at 50 mg/kg, IG qd administered on day 5 measured after 2 weeks; format: toxicity, organism-based, MC-38; details: in vivo, po, 336 h
[26] = AUC (0 to t) in Sprague-Dawley rat at 10 mg/kg, ip measured upto 48 hrs by LC-MS/MS analysis; format: ADME, organism-based; design: time < 48 hrs, dose 10 mg/kg, route ip; details: in vivo
[27] = test system: MC-38; assay: Antitumor activity against mouse MC38 cells implanted in PD-1/PD-L1 humanized C57/BL6 mouse assessed as increase in CD3 positive CD8 positive T cells proportion in tumor at 50 mg/kg, IG qd administered on day 5 measured after 2 weeks by flow cytometry analysis (reference value: 51.8%); format: functional
[28] = test system: MC-38; assay: Antitumor activity against mouse MC38 cells expressing human PD-L1 protein assessed as reduction in cell viability measured after 48 hrs by CCK-8 assay; format: functional, cell-based; details: MC-38, 48 h
[29] = Tmax in Sprague-Dawley rat at 8 mg/kg, iv measured upto 48 hrs by LC-MS/MS analysis; format: ADME, organism-based; details: in vivo
[30] = test system: MC-38; assay: Immunomodulatory activity in mouse MC38 cells implanted in PD-1/PD-L1 humanized C57/BL6 mouse assessed as increase in CXCL10 mRNA expression level in tumor at 50 mg/kg, IG qd administered on day 5 measured after 2 weeks by RT-PCR analysis; format: functional, organism-based
[31] = test system: PBMC; assay: Cytotoxicity against human PBMC cells assessed as reduction in cell viability at 1 to 4 uM measured after 48 hrs by CCK-8 assay; format: toxicity, cell-based; details: dose 1-4 µM
[32] = AUC (0 to infinity) in Sprague-Dawley rat at 8 mg/kg, iv measured upto 48 hrs by LC-MS/MS analysis; format: ADME, organism-based; design: time < 48 hrs, dose 8 mg/kg, route iv; details: in vivo
[33] = Hepatotoxicity in PD-1/PD-L1 humanized C57/BL6 mouse implanted with mouse MC38 cells assessed as effect on total protein level in serum at 50 mg/kg, IG qd administered on day 5 measured after 2 weeks; format: toxicity, organism-based, MC-38; details: in vivo, po, 336 h

N#Cc1cncc(COc2cc(OCc3cccc(-c4ccccc4F)c3Cl)ccc2CNCCO)c1
Activity [1]: Active
AUC(0-t) at 48 h [2]: 11500 ng·h/mL
Activity [3]: Non-Toxic
Vz [4]: 1.8 L/kg
AUC(0-inf) [5]: 10500 ng·h/mL
Vz [6]: 2.94 L/kg
Activity [7]: Active
inhibition in vivo at 50 mg/kg [8]: 55.2%
Tmax [9]: 52.8 min
AUC(0-t) at 48 h [10]: 63600 ng·h/mL
Activity [11]: Non-Toxic
half-life [12]: 103 min
bioavailability [13]: 114%
Cmax [14]: 4160 ng/mL
Vd [15]: 1.09 L/kg
CL/F [16]: 10.3 mL/min/kg
Activity [17]: Non-Toxic
Activity [18]: Non-Toxic
Activity [19]: Non-Toxic
Activity [20]: Active
CL/F [21]: 20.2 mL/min/kg
IC50 [22]: 24 µM
Activity [23]: Non-Toxic
Activity [24]: Non-Toxic
Activity [25]: Non-Toxic
AUC(0-t) at 48 h [26]: 9730 ng·h/mL
Activity [27]: 67.4%
IC50 [28]: > 8 µM
Tmax [29]: 4.8 min
Activity [30]: Active
Activity [31]: Non-Toxic
AUC(0-inf) [32]: 13400 ng·h/mL
Activity [33]: Non-Toxic
